Earlier results in patent publication US20130338095A1, “Chemosensory Receptor Ligand-Based Therapies” (ELCELYX THERAPEUTICS, INC., priority 2010, published 2013).

Biological target: T1, sweet receptor (Homo sapiens, UniProt Q7RTX0+Q8TE23)
T1 sequence (Q8TE23 20-839): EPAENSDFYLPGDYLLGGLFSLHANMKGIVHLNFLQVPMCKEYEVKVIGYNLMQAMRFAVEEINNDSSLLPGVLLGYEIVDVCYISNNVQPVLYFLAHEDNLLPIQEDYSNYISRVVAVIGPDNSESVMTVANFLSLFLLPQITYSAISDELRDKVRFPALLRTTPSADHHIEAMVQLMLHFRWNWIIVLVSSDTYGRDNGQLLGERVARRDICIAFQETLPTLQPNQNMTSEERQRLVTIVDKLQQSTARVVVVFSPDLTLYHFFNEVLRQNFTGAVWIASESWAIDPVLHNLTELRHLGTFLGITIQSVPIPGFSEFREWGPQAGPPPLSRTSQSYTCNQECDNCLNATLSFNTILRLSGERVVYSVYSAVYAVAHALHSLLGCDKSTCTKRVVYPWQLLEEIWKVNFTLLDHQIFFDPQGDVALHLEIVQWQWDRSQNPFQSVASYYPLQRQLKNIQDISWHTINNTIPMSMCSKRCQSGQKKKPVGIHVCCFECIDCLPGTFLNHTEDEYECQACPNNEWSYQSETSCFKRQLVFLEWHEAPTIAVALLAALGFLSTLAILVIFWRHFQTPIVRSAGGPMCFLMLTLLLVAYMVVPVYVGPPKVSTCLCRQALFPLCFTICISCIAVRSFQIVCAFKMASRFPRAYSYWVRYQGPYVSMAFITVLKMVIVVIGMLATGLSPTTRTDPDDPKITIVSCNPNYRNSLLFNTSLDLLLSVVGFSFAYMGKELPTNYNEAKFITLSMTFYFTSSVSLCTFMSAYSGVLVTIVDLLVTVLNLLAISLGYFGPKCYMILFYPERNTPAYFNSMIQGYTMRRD
T1 sequence (Q7RTX0 21-852): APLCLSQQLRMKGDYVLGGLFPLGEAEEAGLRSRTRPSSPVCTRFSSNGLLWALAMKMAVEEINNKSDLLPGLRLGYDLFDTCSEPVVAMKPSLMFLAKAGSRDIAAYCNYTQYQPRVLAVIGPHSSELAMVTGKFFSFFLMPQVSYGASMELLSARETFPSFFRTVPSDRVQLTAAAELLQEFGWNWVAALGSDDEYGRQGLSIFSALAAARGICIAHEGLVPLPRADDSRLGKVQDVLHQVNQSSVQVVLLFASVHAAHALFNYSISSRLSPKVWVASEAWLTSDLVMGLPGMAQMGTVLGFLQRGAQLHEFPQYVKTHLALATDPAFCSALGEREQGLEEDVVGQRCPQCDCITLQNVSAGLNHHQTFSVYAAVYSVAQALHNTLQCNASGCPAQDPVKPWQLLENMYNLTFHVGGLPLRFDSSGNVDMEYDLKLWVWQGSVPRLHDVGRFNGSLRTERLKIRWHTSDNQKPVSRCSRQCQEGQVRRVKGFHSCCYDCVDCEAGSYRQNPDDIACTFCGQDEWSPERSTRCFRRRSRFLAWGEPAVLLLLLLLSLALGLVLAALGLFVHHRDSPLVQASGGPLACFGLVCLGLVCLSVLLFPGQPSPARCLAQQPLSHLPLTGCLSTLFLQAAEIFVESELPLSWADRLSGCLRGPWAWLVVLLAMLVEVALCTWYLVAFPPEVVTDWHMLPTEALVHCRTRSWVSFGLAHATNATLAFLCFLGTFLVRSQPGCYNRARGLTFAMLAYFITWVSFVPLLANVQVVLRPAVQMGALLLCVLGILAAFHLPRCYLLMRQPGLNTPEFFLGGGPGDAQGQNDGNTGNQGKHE
Settings: relative sweetness on a weight comparison basis to sucrose (=1.0)

Row | Compound | Sweetness/potency
1 | C/C(=C\CC[C@@H](C)[C@H]1CC[C@@]2(C)[C@@H]3CC=C4[C@@H](CC[C@H](O[C@@H]5O[C@H](CO)[C@@H](O)[C@H](O)[C@H]5O)C4(C)C)[C@]3(C)[C@H](O)C[C@]12C)CO[C@@H]1O[C@H](CO[C@@H]2O[C@H](CO)[C@@H](O)[C@H](O)[C@H]2O)[C@@H](O)[C@H](O)[C@H]1O [Carnosifloside VI] | 77
2 | Polypodoside A | 600
3 | Brazzein (QDKCKKVYENYPVSKCQLANQCNYDCKLDKHARSGECFYDEKRNLQCICDYCEY; UniProt P56552 1-54, looked up) [sweet protein from Pentadiplandra brazzeana] | 2,000
4 | Thaumatin | 1,600
5 | Oc1ccc([C@H]2Oc3c(c(O)cc4c3[C@H]3c5c(O)cc(O)cc5O[C@@](c5ccc(O)cc5)(O4)[C@@H]3O)[C@H](c3c(O)cc(O)c4c3O[C@H](c3ccc(O)cc3)[C@@H](O)C4)[C@H]2O)cc1 [Selligueain A] | 35
6 | CC1(C(=O)O)CCC2(C)CCC3(C)C(=CC(=O)C4C5(C)CCC(OC6OC(C(=O)O)C(O)C(O)C6OC6OCC(O)(CO)C6O)C(C)(C)C5CCC43C)C2C1 (centres unmarked) [Apioglycyrrhizin] | 300
7 | CC1(C)[C@@H](O[C@@H]2O[C@H](C(=O)O)[C@@H](O)[C@H](O)[C@H]2O[C@@H]2O[C@H](C(=O)O)[C@@H](O)[C@H](O)[C@H]2O)CC[C@]2(C=O)[C@H]3CC[C@@H]4C5=C[C@@](C)(C(=O)O)CC[C@]5(C)CC[C@@]4(C)[C@]3(C)CC[C@@H]12 [Periandrin I] | 90
8 | Periandrin II | 95
9 | C/C(=C\CC/C(C)=C/CO[C@@H]1O[C@H](CO)[C@@H](O)[C@H](O[C@@H]2O[C@@H](C)[C@H](O)[C@@H](O)[C@H]2O)[C@H]1O[C@@H]1O[C@@H](C)[C@H](O)[C@@H](O)[C@H]1O)CC/C=C(\C)CO[C@@H]1O[C@H](CO)[C@@H](O)[C@H](O[C@@H]2O[C@@H](C)[C@H](O)[C@@H](O)[C@H]2O)[C@H]1O[C@@H]1O[C@@H](C)[C@H](O)[C@@H](O)[C@H]1O [Mukurozioside IIb] | ca. 1
10 | CC1=CC[C@@H]([C@@H](C)[C@H]2CC[C@@]3(C)[C@@H]4CC[C@H]5[C@](C)(C(=O)O)[C@@H](O[C@@H]6O[C@H](CO)[C@@H](O)[C@H](O)[C@H]6O)CC[C@@]56C[C@@]46CC[C@]23C)OC1=O [Abrusoside A] | 30
11 | Monellin | 3,000
12 | C=C(C)C1CCC2(C)C(CC(OC3OCC(O)C(O)C3O)C3C(C(C)(O)C/C=C/C(C)(C)O)CCC32C)C1(C)CCC(=O)O (centres unmarked) [Pterocaryoside B] | 100
13 | Carnosifloside V | 51
14 | COc1ccc(CCC(=O)c2c(O)cc(O[C@@H]3O[C@H](CO)[C@@H](O)[C@H](O)[C@H]3O[C@@H]3O[C@@H](C)[C@H](O)[C@@H](O)[C@H]3O)cc2O)cc1O [Neohesperidin dihydrochalcone] | 1,000
15 | C[C@@H]1O[C@@H](O[C@H]2O[C@@H]([C@@H](C)C3CC[C@@H]4[C@H]5CC(=O)[C@@H]6C[C@H](O[C@@H]7O[C@H](CO)[C@@H](O)[C@H](O)[C@H]7O[C@@H]7O[C@@H](C)[C@H](O)[C@@H](O)[C@H]7O)CC[C@]6(C)[C@@H]5CC[C@]34C)CC[C@@H]2C)[C@H](O)[C@H](O)[C@H]1O (some centres unmarked) [Osladin] | 500
16 | Pterocaryoside A | 50
17 | Oc1cc2c(cc1O)[C@@H]1c3ccc(O)c(O)c3OC[C@]1(O)C2 [Hematoxylin] | 120
18 | COc1c(O)cc2c(c1O)C(=O)[C@H](OC(C)=O)[C@@H](c1ccc(O)c(O)c1)O2 [(2R,3R)-2,3-Dihydro-5,7,3′,4′-tetrahydroxy-6-methoxy-3-O-acetylflavonol] | 25
19 | C=C1C[C@@]23CC[C@H]4[C@@](C)(CCC[C@@]4(C)C(=O)O)[C@@H]2CC[C@]1(O[C@@H]1O[C@H](CO)[C@@H](O)[C@H](O)[C@H]1O[C@@H]1O[C@H](CO)[C@@H](O)[C@H](O)[C@H]1O)C3 [Steviolbioside] | 90
20 | C=C1C[C@@]23CC[C@H]4[C@@](C)(CCC[C@@]4(C)C(=O)O[C@@H]4O[C@H](CO)[C@@H](O)[C@H](O)[C@H]4O)[C@@H]2CC[C@]1(O[C@@H]1O[C@H](CO)[C@@H](O)[C@H](O)[C@H]1O[C@@H]1O[C@H](CO)[C@@H](O)[C@H](O)[C@H]1O)C3 [Stevioside] | 210
21 | Rebaudioside C | 30

Row | Compound | Sweetness/potency
22 | Cyclocarioside A | 200
23 | CC1=CC[C@@H]([C@@H](C)[C@H]2CC[C@@]3(C)[C@@H]4CC[C@H]5[C@](C)(C(=O)O)[C@@H](O[C@@H]6O[C@H](CO)[C@@H](O)[C@H](O)[C@H]6O[C@@H]6O[C@H](C(=O)O)[C@@H](O)[C@H](O)[C@H]6O)CC[C@@]56C[C@@]46CC[C@]23C)OC1=O [Abrusoside D] | 75
24 | CC(=O)O[C@H]1C(=O)c2c(O)cc(O)cc2O[C@@H]1c1ccc(O)c(O)c1 [(2R,3R)-Dihydroquercetin 3-O-acetate] | 80
25 | COc1ccc(C2Oc3cc(O)cc(O)c3C(=O)C2OC(C)=O)cc1O (centres unmarked) [Dihydroquercetin 3-O-acetate 4′-methyl ether] | 400
26 | CC1(C)[C@@H](O[C@H]2O[C@H](C(=O)O)[C@@H](O)[C@H](O)[C@H]2O[C@@H]2OC[C@H](O)[C@H](O)[C@H]2O)CC[C@]2(C)[C@H]3C(=O)C=C4[C@@H]5C[C@@](C)(C(=O)O)CC[C@]5(C)CC[C@@]4(C)[C@]3(C)CC[C@@H]12 [Araboglycyrrhizin] | 150
27 | CC1(C(=O)O)C=C2C3CCC4C5(C=O)CCC(OC6OC(C(=O)O)C(O)C(O)C6OC6OCC(O)C(O)C6O)C(C)(C)C5CCC4(C)C3(C)CCC2(C)CC1 (centres unmarked) [Periandrin V] | 220
28 | C/C=C/c1ccc(OC)cc1 [trans-Anethole] | 13
29 | C[C@@H]1O[C@@H](O[C@H]2[C@H](Oc3cc(O)c(C(=O)CCc4ccc(O)cc4)c(O)c3)O[C@H](CO)[C@@H](O)[C@@H]2O)[C@H](O)[C@H](O)[C@H]1O [Naringin dihydrochalcone] | 300
30 | CC1=CC[C@@H]([C@@H](C)[C@H]2CC[C@@]3(C)[C@@H]4CC[C@H]5[C@](C)(C(=O)O)[C@@H](O[C@@H]6O[C@H](CO)[C@@H](O)[C@H](O)[C@H]6O[C@@H]6O[C@H](CO)[C@@H](O)[C@H](O)[C@H]6O)CC[C@@]56C[C@@]46CC[C@]23C)OC1=O [Abrusoside C] | 50
31 | Periandrin IV | 85
32 | C/C(=C\CO)CCC1=C(C=O)CC(OC2OCC(O)C(O)C2O)C2C(C)(CO)CCCC12C (centres unmarked) [Gaudichaudioside A] | 55
33 | CC1(C(=O)O)C=C2C3CCC4C5(CO)CCC(OC6OC(C(=O)O)C(O)C(O)C6OC6OC(C(=O)O)C(O)C(O)C6O)C(C)(C)C5CCC4(C)C3(C)CCC2(C)CC1 (centres unmarked) [Periandrin III] | 92
34 | Rebaudioside B | 150
35 | CC1(C)C[C@H]2C3=CC[C@@H]4[C@@]5(C)CC[C@H](O[C@@H]6O[C@H](CO[C@@H]7OC[C@H](O)[C@H](O)[C@H]7O[C@@H]7OC[C@@H](O)[C@H](O)[C@H]7O)[C@@H](O)[C@H](O)[C@H]6O)C(C)(C)[C@@H]5CC[C@@]4(C)[C@]3(C)C[C@@H](O)[C@@]23C[C@@H]1OC3=O [Albiziasaponin A] | 5
36 | COc1c(O)cc2c(c1O)C(=O)[C@H](O)[C@@H](c1ccc(O)c(O)c1)O2 [(2R,3R)-2,3-Dihydro-5,7,3′,4′-tetrahydroxy-6-methoxyflavonol] | 15
37 | Cyclocaryoside I | 250
38 | Albiziasaponin B | 600
39 | COc1ccc([C@H]2Cc3cccc(O)c3C(=O)O2)cc1O [Phyllodulcin] | 400
40 | Pentadin | 500
41 | Scandenoside R6 | 54
